Where a name gives a salt, the structure may show the parent alone.
Tested on: anesthetized rat
Assay: Anesthetized rat spirometry screening assay
Assay type: in vivo
Conditions: for AUC MV Inc (2 min) (ratio vs. std*): 2 minute AUC of minute volume increase vs. comparator N-[2,6-di-(n-propylamino)-[1,3]pyrimidin-4-yl]-N,O-dimethyl-hydroxylamine; for VE Peak (% Inc.): peak minute ventilation increase, urethane-anesthetized rat, i.v. bolus, screening doses 0.1 and 0.3 mg/kg
Description: Effect of Compounds of the Invention on Respiratory Rate (RR), Tidal Volume (VT), and the Product Minute Volume Using an Anesthetized Rat Spirometry Screening Assay
Anesthetized rats provide a quick method of screening compounds for respiratory and cardiovascular activity. In contrast to the conscious rat model, this model offers an experimental set up with less variation in the baseline cardiovascular and respiratory measures. Compounds screened in this assay may be examined in a conscious rat model.
Rats were initially anesthetized with 3% isoflurane (inhaled) and femoral artery and vein cannulas were surgically inserted. Once cannulated, the rats were transitioned to urethane anesthesia (1.5 g/kg; i.v.) and a tracheal cut-down was performed. After placing the tracheal cannula, it was connected to a pneumotachometer to record respiratory airflow from which respiratory rate (RR), tidal volume (VT), and their product minute volume were derived. After the surgical preparation was complete, animals were allowed to stabilize for 30 minutes while respiratory rate, tidal volume, minute volume, blood pressure and heart rate were recorded continuously. Arterial blood gases (ABG) were obtained from arterial blood collected from the femoral artery. ABG measurements were taken before and 6 minutes after vehicle and each dose of compound administered. Compounds being screened were administered via bolus injections through the venous cannula followed by a saline flush (total time of administration is approximately 30 seconds), and the animal was monitored for at least 6 minutes for changes in cardiovascular efforts. Compounds were prepared in formulations identified to ensure optimal solubility. As such, vehicle controls were matched for the formulation of each compound tested. Dosing of the compound being screened was 0.1 and 0.3 mg/kg. The next dose was not administered until all cardiovascular and respiratory measures had returned to baseline levels. The positive control compounds used were N-[4,6-di-(n-propylamino)-[1,3,5]triazin-2-yl]-N,O-dimethyl-hydroxylamine or N-[2,6-di-(n-propylamino)-[1,3]pyrimidin-4-yl]-N,O-dimethyl-hydroxylamine (both administered at the end of each screening experiment (0.3 mg/kg dose) to validate the experiment and also to serve as a measure with which the compound being screened could be compared.
Data were analyzed by collecting cardiovascular and respiratory data in 30 second averages (BINs). Data were plotted 2 minutes before challenge and then 6 minutes after challenge.

SMILES	AUC MV Inc (2 min) (ratio vs. std*)	VE Peak (% Inc.)
CCCN(C)c1nc(N)c2nc(N(C)C)nc(NC)c2n1.Cl [Compound 56a, N^2,N^2,N^4,N^6-Tetramethyl-N^6-n-propyl-pyrimido[5,4-d]pyrimidine-2,4,6,8-tetraamine hydrochloride]	0.79 ratio vs. std	–
C=CCN(CC=C)c1nc(NC)c2nc(NCCC)nc(NC)c2n1 [Compound 58a, N^2,N^2-Diallyl-N^4,N^8-dimethyl-N^6-n-propyl-pyrimido[5,4-d]pyrimidine-2,4,6,8-tetraamine]	0.18 ratio vs. std	–
CCCNc1nc(NC)c2nc(NCCOC(C)C)nc(NC)c2n1 [Compound 62a, N^2-(2-Isopropoxy-ethyl)-N^4,N^8-dimethyl-N^6-n-propyl-pyrimido[5,4-d]pyrimidine-2,4,6,8-tetraamine]	0.55 ratio vs. std	–
CCCNc1nc(NC)c2nc(N(C)CCN(C)C)nc(NC)c2n1 [Compound 64a, 2-[N-(2-Dimethylamino-ethyl)-N-methyl]amino-N^4,N^8-dimethyl-N^6-n-propyl-pyrimido[5,4-d]pyrimidine-4,6,8-triamine]	0.01 ratio vs. std	9 % Inc.
CCCNc1nc(NC)c2nc(N(CCO)CCO)nc(NC)c2n1.Cl [Compound 66a, 2-[(4,8-Bis-methylamino-6-n-propylamino-pyrimido[5,4-d]pyrimidin-2-yl)-(2-hydroxy-ethyl)-amino]-ethanol hydrochloride]	0.14 ratio vs. std	–
CCCNc1nc(NC)c2nc(N(CCOC)CCOC)nc(NC)c2n1 [Compound 68a, N^2,N^2-Bis-(2-methoxyethyl)-N^4,N^8-dimethyl-N^6-n-propyl-pyrimido[5,4-d]pyrimidine-2,4,6,8-tetraamine]	0.00 ratio vs. std	–
CCCNc1nc(NC)c2nc(N3CCS(=O)(=O)CC3)nc(NC)c2n1.Cl [Compound 75a, N^2-6-n-Propylamino-N^4,N^8-dimethyl-2-(1,1-dioxo-thiomorpholin-4-yl)-pyrimido-[5,4-d]pyrimidine-2,4,8-triamine hydrochloride]	0.02 ratio vs. std	2 % Inc.
CCCNc1nc(NC)c2nc(N3CCC(F)(F)CC3)nc(NC)c2n1 [Compound 77a, N^2-n-Propyl-N^4,N^8-dimethyl-6-(4,4-difluoro-piperidin-1-yl)-pyrimido[5,4-d]pyrimidine-2,4,8-triamine hydrochloride]	0.55 ratio vs. std	–
CNc1nc(NCC(C)C)nc2c(NC)nc(NCC(C)C)nc12.Cl [Compound 87a, N^2,N^6-Diisobutyl-N^4,N^8-dimethyl-pyrimido[5,4-d]pyrimidine-2,4,6,8-tetraamine hydrochloride]	0.18 ratio vs. std	–
C=CCNc1nc(NC)c2nc(NCC=C)nc(NC)c2n1.Cl [Compound 89a, N^2,N^6-Diallyl-N^4,N^8-dimethyl-pyrimido[5,4-d]pyrimidine-2,4,6,8-tetraamine hydrochloride]	0.92 ratio vs. std	–
CCCNc1nc(NC)c2nc(OCCC)nc(NC)c2n1 [Compound 95a, N^4,N^8-Dimethyl-6-propoxy-N^2-n-propyl-pyrimido[5,4-d]pyrimidine-2,4,8-triamine]	0.36 ratio vs. std	–
CCCNc1nc(NC)c2nc(SCCC)nc(NC)c2n1 [Compound 97a, N^4,N^8-Dimethyl-N^2-n-propyl-6-propylsulfanyl-pyrimido[5,4-d]pyrimidine-2,4,8-triamine]	0.26 ratio vs. std	–
CCCNc1nc(NC)c2nc(OCc3ccccc3)nc(NC)c2n1 [Compound 99a, 6-Benzyloxy-N^4,N^8-Dimethyl-N^2-n-propyl-pyrimido[5,4-d]pyrimidine-2,4,8-triamine]	0.19 ratio vs. std	–
CCCNc1nc(NC)c2nc(O)nc(NC)c2n1 [Compound 101, 4,8-Bis-methylamino-6-propylamino-pyrimido[5,4-d]pyrimidin-2-ol]	0.00 ratio vs. std	–
CCCNc1nc(NC)c2nc(C#N)nc(NC)c2n1 [Compound 103a, 4,8-Bis-methylamino-6-n-propylamino-pyrimido[5,4-d]pyrimidine-2-carbonitrile]	0.00 ratio vs. std	–
CCCNc1nc(NC)c2nc(CN)nc(NC)c2n1 [Compound 105a, N^4,N^8-Dimethyl-N^2-n-propyl-6-(aminomethyl)-pyrimido[5,4-d]pyrimidine-2,4,8-triamine]	0.00 ratio vs. std	–
CCCNc1nc(NC)c2nc(C(N)=O)nc(NC)c2n1 [Compound 107a, 6-Carbamoyl-N^4,N^8-dimethyl-N^2-n-propyl-pyrimido[5,4-d]pyrimidine-2,4,8-triamine]	0.00 ratio vs. std	–
CCCN=C(N)c1nc(NC)c2nc(NCCC)nc(NC)c2n1 [Compound 110a, N-(n-Propyl)-[4,8-Bis-methylamino-6-n-propylamino-pyrimido[5,4-d]pyrimidin-2-yl]-amidine]	0.00 ratio vs. std	0 % Inc.
CCCNc1nc(NC)c2ncnc(NC)c2n1 [Compound 116a, N^4,N^8-Dimethyl-N^2-n-propyl-pyrimido[5,4-d]pyrimidine-2,4,8-triamine]	0.00 ratio vs. std	–
CCCNc1nc(NC)nc2c(NCCC)nc(C#N)nc12 [Compound 122a, 6-Methylamino-4,8-bis-n-propylamino-pyrimido[5,4-d]pyrimidine-2-carbonitrile]	0.00 ratio vs. std	–
CCNc1nc(NCC)c2nc(NCC)nc(NCC)c2n1.Cl [Compound 125a, N^2,N^4,N^6,N^8-Tetraethyl-pyrimido[5,4-d]pyrimidine-2,4,6,8-tetraamine hydrochloride]	0.80 ratio vs. std	–
CCCNc1nc(NCC)c2nc(NCCC)nc(NCC)c2n1 [Compound 127a, N^4,N^8-Diethyl-N^2,N^6-di-n-propyl-pyrimido[5,4-d]pyrimidine-2,4,6,8-tetraamine]	0.86 ratio vs. std	–
CCNc1nc(NCC2CC2)nc2c(NCC)nc(NCC3CC3)nc12 [Compound 129a, N^2,N^6-Bis-cyclopropylmethyl-N^4,N^8-diethyl-pyrimido[5,4-d]pyrimidine-2,4,6,8-tetraamine]	0.25 ratio vs. std	–
CCNc1nc(NCC2CC2)c2nc(N(CC)CC)nc(NCC3CC3)c2n1.Cl [Compound 135a, N^2,N^2,N^6-Triethyl-N^4,N^8-bis-cyclopropylmethyl-pyrimido[5,4-d]pyrimidine-2,4,6,8-tetraamine hydrochloride]	0.00 ratio vs. std	–
CCCNc1nc(N(C)C)nc2c(NCCC)nc(N(C)C)nc12 [Compound 142a, N^2,N^2,N^6,N^6-Tetramethyl-N^4,N^8-di-n-propyl-pyrimido[5,4-d]pyrimidine-2,4,6,8-tetraamine]	0.05 ratio vs. std	–
C=CCNc1nc(NCC=C)c2nc(N3CCN(Cc4ccc(F)cc4)CC3)nc(NCC=C)c2n1.Cl.Cl [Compound 148a, N^2,N^4,N^8-Triallyl-6-[4-(4-fluorobenzyl)-piperazin-1-yl]-pyrimido[5,4-d]pyrimidine-2,4,8-triamine dihydrochloride]	0.00 ratio vs. std	–
C=CCNc1nc(NCC=C)c2nc(N3CCN(C(c4ccc(F)cc4)c4ccc(F)cc4)CC3)nc(NCC=C)c2n1 [Compound 150a, N^2,N^4,N^8-Triallyl-6-{4-[bis-(4-fluorophenyl)-methyl]-piperazin-1-yl}-pyrimido[5,4-d]pyrimidine-2,4,8-triamine]	0.00 ratio vs. std	–
CCCNc1nc(N(CC)CC)nc2c(NCCC)nc(NCC)nc12 [Compound 152a, N^2,N^2,N^6-Triethyl-N^4,N^8-di-n-propyl-pyrimido[5,4-d]pyrimidine-2,4,6,8-tetraamine]	0.00 ratio vs. std	–
CCCNc1nc(NC)c2nc(NCC(=O)O)nc(NC)c2n1 [Compound 154, (4,8-bis-methylamino-6-n-propylamino-pyrimido[5,4-d]pyrimidin-2-ylamino)-acetic acid]	0.00 ratio vs. std	–
CCCNC(=O)CNc1nc(NC)c2nc(NCCC)nc(NC)c2n1.Cl [Compound 157a, N-n-Propyl-[2-(4,8-bis-methylamino-6-propylamino-pyrimido[5,4-d]pyrimidin-2-ylamino)]-acetamide hydrochloride]	0.04 ratio vs. std	–

— patent publication US9643971B2 (GALLEON PHARMACEUTICALS, INC., priority 2013, dated 2017)
